Here are results for 19 compounds from patent publication US20220153746A1, “NITROGEN OXIDE-DONATING PDE-5 AND/OR PDE-6 INHIBITOR COMPOUNDS, AND USES THEREOF” (ILDONG PHARMACEUTICAL CO., LTD., priority 2020, published 2022).

For one test, the target named is human PDE-6C (Homo sapiens, UniProt P51160). Nature of the test: Human PDE-6C inhibition assay (fluorescence polarization, FAM-cGMP). Type of test: biochemical.
The next test has as its target human PDE-5A1 (Homo sapiens, UniProt O76074). Kind of test: Human PDE-5A1 inhibition assay (fluorescence polarization, FAM-cGMP). Format: biochemical.

SMILES strings stand for the structures. Read-outs that look alike come from different tables or passages of the source. Bounds are passed on as bounds.

Chain of human PDE-6C (P51160 whole entry): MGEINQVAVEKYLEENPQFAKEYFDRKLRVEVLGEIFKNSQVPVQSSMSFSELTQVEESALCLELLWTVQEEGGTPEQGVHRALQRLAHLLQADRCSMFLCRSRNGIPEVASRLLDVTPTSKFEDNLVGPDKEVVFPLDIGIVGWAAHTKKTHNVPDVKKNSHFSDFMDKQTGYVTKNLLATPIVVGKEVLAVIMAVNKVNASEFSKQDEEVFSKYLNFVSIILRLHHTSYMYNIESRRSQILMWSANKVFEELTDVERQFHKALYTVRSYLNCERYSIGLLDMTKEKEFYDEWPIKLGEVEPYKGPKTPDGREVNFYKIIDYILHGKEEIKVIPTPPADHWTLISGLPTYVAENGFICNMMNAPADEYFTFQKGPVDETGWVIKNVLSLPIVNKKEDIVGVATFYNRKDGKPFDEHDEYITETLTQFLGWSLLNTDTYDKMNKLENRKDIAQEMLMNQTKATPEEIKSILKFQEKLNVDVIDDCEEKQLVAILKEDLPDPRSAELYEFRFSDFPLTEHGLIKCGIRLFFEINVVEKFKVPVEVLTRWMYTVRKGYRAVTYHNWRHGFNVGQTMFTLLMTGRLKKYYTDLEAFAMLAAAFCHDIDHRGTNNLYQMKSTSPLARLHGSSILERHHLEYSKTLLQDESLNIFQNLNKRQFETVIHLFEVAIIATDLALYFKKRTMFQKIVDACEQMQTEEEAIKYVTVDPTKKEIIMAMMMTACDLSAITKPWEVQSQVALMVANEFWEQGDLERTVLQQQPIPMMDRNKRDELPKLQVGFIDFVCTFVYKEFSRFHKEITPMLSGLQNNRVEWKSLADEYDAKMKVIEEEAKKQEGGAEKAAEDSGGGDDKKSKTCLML

Regarding `CCCc1nn(C)c2c(=O)[nH]c(-c3cc(S(=O)(=O)N4CC(N5CC(O)C5)C4)ccc3OCC)nc12` [Compound 31, 5-(2-ethoxy-5-((3-hydroxy-[1,3′-biazetidin]-1′-yl)sulfonyl)phenyl)-1-methyl-3-propyl-1,6-dihydro-7H-pyrazolo [4,3-d]pyrimidin-7-one], the IC50 at human PDE-6C (read-out: IC50 (μM) PDE6C) was less than 0.01 µM; on human PDE-5A1 (read-out: IC50 (μM) PDE5A1) it was 0.01 to 0.1 µM.

Consider `CCCc1nn(C)c2c(=O)[nH]c(-c3cc(S(=O)(=O)N4CC(N5CC(CO)C5)C4)ccc3OCC)nc12` [Compound 32, 5-(2-ethoxy-5-((3-(hydroxymethyl)-[1,3′-biazetidin]-1′-yl)sulfonyl)phenyl)-1-methyl-3-propyl-1,6-dihydro-7H-pyrazolo[4,3-d]pyrimidin-7-one], for which the IC50 on human PDE-6C (read-out: IC50 (μM) PDE6C) was 0.01 to 0.1 µM; on human PDE-5A1 (read-out: IC50 (μM) PDE5A1), less than 0.01 µM.

As for `CCCc1nn(C)c2c(=O)[nH]c(-c3cc(S(=O)(=O)N4CC(N5CC(CCO)C5)C4)ccc3OCC)nc12` [Compound 33, 5-(2-ethoxy-5-((3-(2-hydroxyethyl)-[1,3′-biazetidin]-1′-yl)sulfonyl)phenyl)-1-methyl-3-propyl-1,6-dihydro-7H-pyrazolo[4,3-d]pyrimidin-7-one], the IC50 on human PDE-6C (read-out: IC50 (μM) PDE6C) and on human PDE-5A1 (read-out: IC50 (μM) PDE5A1) was less than 0.01 µM throughout.

With `CCCc1nn(C)c2c(=O)[nH]c(-c3cc(S(=O)(=O)N4CC(OCCO[N+](=O)[O-])C4)ccc3OCC)nc12` [Compound 34, 2-((1-((4-ethoxy-3-(1-methyl-7-oxo-3-propyl-6,7-dihydro-1H-pyrazolo[4,3-d]pyrimidin-5-yl)phenyl)sulfonyl)azetidin-3-yl)oxy)ethyl nitrate], the IC50 at human PDE-6C (read-out: IC50 (μM) PDE6C) was less than 0.01 µM; at human PDE-5A1 (read-out: IC50 (μM) PDE5A1), 0.01 to 0.1 µM.

On to `CCCc1nn(C)c2c(=O)[nH]c(-c3cc(S(=O)(=O)N4CC(OCCCO[N+](=O)[O-])C4)ccc3OCC)nc12` [Compound 35, 3-((1-((4-ethoxy-3-(1-methyl-7-oxo-3-propyl-6,7-dihydro-1H-pyrazolo[4,3-d]pyrimidin-5-yl)phenyl)sulfonyl)azetidin-3-yl)oxy)propyl nitrate], for which the IC50 was less than 0.01 µM at human PDE-6C (read-out: IC50 (μM) PDE6C) and 0.01 to 0.1 µM at human PDE-5A1 (read-out: IC50 (μM) PDE5A1).

As for `CCCc1nn(C)c2c(=O)[nH]c(-c3cc(S(=O)(=O)N4CC(OCCCCO[N+](=O)[O-])C4)ccc3OCC)nc12` [Compound 36, 4-((1-((4-ethoxy-3-(1-methyl-7-oxo-3-propyl-6,7-dihydro-1H-pyrazolo[4,3-d]pyrimidin-5-yl)phenyl)sulfonyl)azetidin-3-yl)oxy)butyl nitrate], the IC50 at human PDE-6C (read-out: IC50 (μM) PDE6C) and at human PDE-5A1 (read-out: IC50 (μM) PDE5A1) was 0.01 to 0.1 µM each time.

For the compound `CCCc1nn(C)c2c(=O)[nH]c(-c3cc(S(=O)(=O)N4CC(CN5CC(CO[N+](=O)[O-])C5)C4)ccc3OCC)nc12` [Compound 37, (1-((1-((4-ethoxy-3-(1-methyl-7-oxo-3-propyl-6,7-dihydro-1H-pyrazolo[4,3-d]pyrimidin-5-yl)phenyl)sulfonyl)azetidin-3-yl)methyl)azetidin-3-yl)methyl nitrate], the IC50 at human PDE-6C (read-out: IC50 (μM) PDE6C) and at human PDE-5A1 (read-out: IC50 (μM) PDE5A1) was 0.01 to 0.1 µM each time.

For the compound `CCCc1nn(C)c2c(=O)[nH]c(-c3cc(S(=O)(=O)N4CC(N(CCCO[N+](=O)[O-])CCCO[N+](=O)[O-])C4)ccc3OCC)nc12` [Compound 38, ((1-((4-ethoxy-3-(1-methyl-7-oxo-3-propyl-6,7-dihydro-1H-pyrazolo[4,3-d]pyrimidin-5-yl)phenyl)sulfonyl)azetidin-3-yl)azanediyl)bis(propane-3,1-diyl) dinitrate], the IC50 against human PDE-6C and on human PDE-5A1 was 0.01 to 0.1 µM each time.

Turning to `CCCc1nn(C)c2c(=O)[nH]c(-c3cc(S(=O)(=O)N4CC(N5CC(O[N+](=O)[O-])C5)C4)ccc3OCC)nc12` [Compound 39, 1′-((4-ethoxy-3-(1-methyl-7-oxo-3-propyl-6,7-dihydro-1H-pyrazolo[4,3-d]pyrimidin-5-yl)phenyl)sulfonyl)-[1,3′-biazetidin]-3-yl nitrate], the IC50 at human PDE-6C (read-out: IC50 (μM) PDE6C) and at human PDE-5A1 (read-out: IC50 (μM) PDE5A1) was less than 0.01 µM throughout.

As for `CCCc1nn(C)c2c(=O)[nH]c(-c3cc(S(=O)(=O)N4CC(N5CC(CO[N+](=O)[O-])C5)C4)ccc3OCC)nc12` [Compound 40, (1′-((4-ethoxy-3-(1-methyl-7-oxo-3-propyl-6,7-dihydro-1H-pyrazolo[4,3-d]pyrimidin-5-yl)phenyl)sulfonyl)-[1,3′-biazetidin]-3-yl)methyl nitrate], the half-inhibitory concentration (IC50) at human PDE-6C (read-out: IC50 (μM) PDE6C) is less than 0.01 µM; on human PDE-5A1 (read-out: IC50 (μM) PDE5A1) it was 0.01 to 0.1 µM.

As for `CCCc1nn(C)c2c(=O)[nH]c(-c3cc(S(=O)(=O)N4CC(CCCOC(=O)CCCCCO[N+](=O)[O-])C4)ccc3OCC)nc12` [Compound 65, 3-(1-((4-ethoxy-3-(1-methyl-7-oxo-3-propyl-6,7-dihydro-1H-pyrazolo[4,3-d]pyrimidin-5-yl)phenyl)sulfonyl)azetidin-3-yl)propyl 6-(nitrooxy)hexanoate], the IC50 on human PDE-6C (read-out: IC50 (μM) PDE6C) and at human PDE-5A1 (read-out: IC50 (μM) PDE5A1) was less than 0.01 µM in each case.

As for `CCCc1nn(C)c2c(=O)[nH]c(-c3cc(S(=O)(=O)N4CC(NCCOC(=O)CCCCO[N+](=O)[O-])C4)ccc3OCC)nc12` [Compound 66, 2-((1-((4-ethoxy-3-(1-methyl-7-oxo-3-propyl-6,7-dihydro-1H-pyrazolo[4,3-d]pyrimidin-5-yl)phenyl)sulfonyl)azetidin-3-yl)amino)ethyl 5-(nitrooxy)pentanoate], the IC50 at human PDE-6C (read-out: IC50 (μM) PDE6C) and on human PDE-5A1 (read-out: IC50 (μM) PDE5A1) was less than 0.01 µM each time.

Take `CCCc1nn(C)c2c(=O)[nH]c(-c3cc(S(=O)(=O)N4CC(N(C)CCOC(=O)CCCCCO[N+](=O)[O-])C4)ccc3OCC)nc12` [Compound 67, 2-((1-((4-ethoxy-3-(1-methyl-7-oxo-3-propyl-6,7-dihydro-1H-pyrazolo[4,3-d]pyrimidin-5-yl)phenyl)sulfonyl)azetidin-3-yl)(methyl)amino)ethyl 6-(nitrooxy)hexanoate]: the IC50 at human PDE-6C (read-out: IC50 (μM) PDE6C) and on human PDE-5A1 (read-out: IC50 (μM) PDE5A1) was less than 0.01 µM throughout.

For the compound `CCCc1nn(C)c2c(=O)[nH]c(-c3cc(S(=O)(=O)N4CC(CCCOC(=O)CCCCC(CO[N+](=O)[O-])O[N+](=O)[O-])C4)ccc3OCC)nc12` (centres unmarked) [Compound 68, 3-(1-((4-ethoxy-3-(1-methyl-7-oxo-3-propyl-6,7-dihydro-1H-pyrazolo[4,3-d]pyrimidin-5-yl)phenyl)sulfonyl)azetidin-3-yl)propyl 6,7-bis(nitrooxy)heptanoate], the IC50 was less than 0.01 µM against human PDE-6C and 0.01 to 0.1 µM at human PDE-5A1.

Turning to `CCCc1nn(C)c2c(=O)[nH]c(-c3cc(S(=O)(=O)N4CC(NCCOC(=O)CCCCC(CO[N+](=O)[O-])O[N+](=O)[O-])C4)ccc3OCC)nc12` (centres unmarked) [Compound 69, 2-((1-((4-ethoxy-3-(1-methyl-7-oxo-3-propyl-6,7-dihydro-1H-pyrazolo[4,3-d]pyrimidin-5-yl)phenyl)sulfonyl)azetidin-3-yl)amino)ethyl 6,7-bis(nitrooxy)heptanoate], the IC50 at human PDE-6C and against human PDE-5A1 was less than 0.01 µM throughout.

In the case of `CCCc1nn(C)c2c(=O)[nH]c(-c3cc(S(=O)(=O)N4CC(N(C)CCOC(=O)CCCCC(CO[N+](=O)[O-])O[N+](=O)[O-])C4)ccc3OCC)nc12` (centres unmarked) [Compound 70, 2-((1-((4-ethoxy-3-(1-methyl-7-oxo-3-propyl-6,7-dihydro-1H-pyrazolo[4,3-d]pyrimidin-5-yl)phenyl)sulfonyl)azetidin-3-yl)(methyl)amino)ethyl 6,7-bis(nitrooxy)heptanoate], the 50% inhibitory concentration (IC50) on human PDE-6C and against human PDE-5A1 was less than 0.01 µM throughout.

Regarding `CCCc1nn(C)c2c(=O)[nH]c(-c3cc(S(=O)(=O)N4CC(CCCOC(=O)CCCCO[N+](=O)[O-])C4)ccc3OCC)nc12` [Compound 71, 3-(1-((4-ethoxy-3-(1-methyl-7-oxo-3-propyl-6,7-dihydro-1H-pyrazolo[4,3-d]pyrimidin-5-yl)phenyl)sulfonyl)azetidin-3-yl)propyl 5-(nitrooxy)pentanoate], the IC50 on human PDE-6C (read-out: IC50 (μM) PDE6C) and at human PDE-5A1 (read-out: IC50 (μM) PDE5A1) was less than 0.01 µM throughout.

For the compound `CCCc1nn(C)c2c(=O)[nH]c(-c3cc(S(=O)(=O)N4CC(CCCOC(=O)CCCO[N+](=O)[O-])C4)ccc3OCC)nc12` [Compound 72, 3-(1-((4-ethoxy-3-(1-methyl-7-oxo-3-propyl-6,7-dihydro-1H-pyrazolo[4,3-d]pyrimidin-5-yl)phenyl)sulfonyl)azetidin-3-yl)propyl 4-(nitrooxy)butanoate], the IC50 at human PDE-6C (read-out: IC50 (μM) PDE6C) and on human PDE-5A1 (read-out: IC50 (μM) PDE5A1) was less than 0.01 µM each time.

As to `CCCc1nn(C)c2c(=O)[nH]c(-c3cc(S(=O)(=O)N4CC(CCCOC(=O)CCC(CO[N+](=O)[O-])O[N+](=O)[O-])C4)ccc3OCC)nc12` (centres unmarked) [Compound 73, 3-(1-((4-ethoxy-3-(1-methyl-7-oxo-3-propyl-6,7-dihydro-1H-pyrazolo[4,3-d]pyrimidin-5-yl)phenyl)sulfonyl)azetidin-3-yl)propyl 4,5-bis(nitrooxy)pentanoate], the IC50 at human PDE-6C and on human PDE-5A1 was less than 0.01 µM each time.
